Test results from article PMC8279416, “Structural Fine-Tuning of Desmuramylpeptide NOD2 Agonists Defines Their In Vivo Adjuvant Activity” (Journal of Medicinal Chemistry, 2021).

Experiments:
[1] = molecular target: T1, NOD2 (Homo sapiens, UniProt Q9HC29); assay: HEK-Blue NOD2 cell line reporter assay (NF-κB-inducible SEAP); type: cell-based; settings: HEK-Blue NOD2 cells, 18 h, mean ± SEM; for NOD2 activity at 2 μM (fold increase): NF-κB transcriptional (SEAP) activity relative to 0.1% DMSO; for EC50: 7 or 8 concentrations 1 nM to 20 μM
T1 construct: host or cells: HEK-Blue NOD2 cells (HEK293-derived)
Experimental: To determine the NOD2 agonistic potential of the synthesized desmuramylpeptides at the cellular level, we used the validated and commercially available HEK-Blue NOD2 cell line reporter assay. HEK-Blue NOD2 cells were first treated for 18 h with MDP, 1, or the novel desmuramylpeptides at 2 μM. The NF-κB transcriptional activity measured was normalized to that of the vehicle treated (0.1% DMSO) control HEK-Blue NOD2 cells.
(§1) HEK-Blue NOD2 and NOD1 cell line reporter assays are derived from HEK293 cells by cotransfection of the hNOD2 or hNOD1 genes, respectively, and an NF-κB-inducible secreted embryonic alkaline phosphatase (SEAP) reporter gene. Following activation of NOD2 or NOD1, the resulting NF-κB induces production of SEAP, the levels of which can be quantified colorimetrically. […] After 18 h of incubation (37 °C, 5% CO2), secreted embryonic alkaline phosphatase (SEAP) activity was determined spectrophotometrically as absorbance at 630 nm (BioTek Synergy microplate reader; Winooski, VT, U.S.A.). EC50 values were calculated using Prism software (version 9; GraphPad Software, CA, U.S.A.). For determination of specificity, HEK-Blue NOD2 cells (2.5 × 10^5 cells/mL) were first pretreated for 1 h with a 10 μM NOD2 antagonist, before the addition of the compounds (2 μM), with incubation for 18 h. SEAP activity in the supernatants was determined as above. The experiments were run in duplicate and repeated as at least two independent biological replicates.

[2] = molecular target: T2, NOD1 (Homo sapiens, UniProt Q9Y239); assay: HEK-Blue NOD1 cell line reporter assay (selectivity); type: cell-based; settings: HEK-Blue NOD1 cells, 2 μM, 18 h
T2 construct: host or cells: HEK-Blue NOD1 cells (HEK293-derived)
T2 sequence (Q9Y239 1-953): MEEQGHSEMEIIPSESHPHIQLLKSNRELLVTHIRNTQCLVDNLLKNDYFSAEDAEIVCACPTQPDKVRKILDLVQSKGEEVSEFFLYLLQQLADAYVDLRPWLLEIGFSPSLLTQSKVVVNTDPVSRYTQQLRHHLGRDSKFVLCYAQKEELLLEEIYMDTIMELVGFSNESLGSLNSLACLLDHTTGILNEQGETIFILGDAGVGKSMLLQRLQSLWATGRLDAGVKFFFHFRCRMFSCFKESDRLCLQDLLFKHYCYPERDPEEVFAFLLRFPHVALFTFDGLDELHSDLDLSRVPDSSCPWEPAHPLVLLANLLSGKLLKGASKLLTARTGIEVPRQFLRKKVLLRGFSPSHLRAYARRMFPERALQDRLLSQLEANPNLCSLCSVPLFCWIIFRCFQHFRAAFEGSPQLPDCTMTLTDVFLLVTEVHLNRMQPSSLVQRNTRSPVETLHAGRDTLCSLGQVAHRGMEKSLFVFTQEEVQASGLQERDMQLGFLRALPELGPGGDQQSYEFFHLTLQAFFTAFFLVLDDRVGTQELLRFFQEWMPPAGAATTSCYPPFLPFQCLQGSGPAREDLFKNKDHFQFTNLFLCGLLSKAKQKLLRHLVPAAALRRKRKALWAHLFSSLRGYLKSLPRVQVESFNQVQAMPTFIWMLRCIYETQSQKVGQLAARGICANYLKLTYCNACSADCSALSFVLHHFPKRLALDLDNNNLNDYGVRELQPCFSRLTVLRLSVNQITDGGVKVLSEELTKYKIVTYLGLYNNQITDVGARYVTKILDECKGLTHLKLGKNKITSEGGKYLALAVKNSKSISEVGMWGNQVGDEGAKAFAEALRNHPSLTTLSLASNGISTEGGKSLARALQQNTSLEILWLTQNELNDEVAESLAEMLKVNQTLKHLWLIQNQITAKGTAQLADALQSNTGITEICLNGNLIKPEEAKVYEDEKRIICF
Experimental: As NOD2 and NOD1 agonists share certain structural characteristics, we wanted to determine whether these compounds selectively target NOD2. Selectivity against NOD1 of MDP and all of these synthesized desmuramylpeptides was analyzed in an analogous assay with the HEK-Blue NOD1 cell line.
as §1
Supporting figure S2. NOD1 agonistic activities of desmuramylpeptides. […]

[3] = molecular target: T1, NOD2; assay: Specificity: NOD2 antagonist pretreatment of HEK-Blue NOD2 cells; type: cell-based; settings: 10 μM NOD2 antagonist 1 h, then 2 μM compound 18 h
Experimental: Furthermore, the specificities were determined by pretreating HEK-Blue NOD2 cells with a previously reported NOD2 antagonist[77] prior to stimulation with MDP (2 μM) or the desmuramylpeptides (2 μM). The resulting NF-κB-induced SEAP activities were compared to those of the controls without the NOD2 antagonist pretreatment.
as §1
Supporting figure S2. […]

[4] = tested on: NIH/OlaHsd mice; assay: In vivo ovalbumin-specific antibody response, first experiment (neutral liposomes); design: species or system mouse; settings: for Log10 (anti-OVA IgG1/anti-OVA IgG2a): first in vivo experiment, one week after the booster dose, mean ± SEM of 5 mice
Experimental: To determine whether enhanced antigen presentation in vitro is correlated to in vivo adjuvant activities, an immunization study was performed in a murine model of adjuvanticity. Specifically, the selected desmuramylpeptides were investigated for induction of systemic immune responses against the model antigen ovalbumin. Seven groups of NIH/OlaHsd mice were immunized with ovalbumin-containing neutral liposomes, either alone or with additional adjuvants of MDP or the desmuramylpeptides 1, 68, 74, 75, or 81. After immunization and one booster dose, the mice sera were collected and assayed for ovalbumin-specific IgG antibodies (Figure 10).
Multilamellar liposomes were prepared by the modified thin lipid film method as described previously.[130],[131] For the preparation of neutral liposomes, a 7:5 molar ratio of egg-phosphatidylcholine and cholesterol was used. For the preparation of negatively charged liposomes, a 7:5:1 molar ratio of egg-phosphatidylcholine, cholesterol, and dicetylphosphate was used, while a 7:5:0.5 molar ratio of egg-phosphatidylcholine, cholesterol, and Man-PEG-Pam was used in the preparation of mannosylated liposomes. Lipids (total lipid concentration, 4 mg/mL) were dissolved in chloroform/methanol (2:1). A methanol or chloroform/methanol solution of MDP or the desmuramylpeptides was added to the lipid solution for a final concentration of 2 mM and 1.5 mM for the first (Figure 10) and second (Figure 11) experiments, respectively. After rotary evaporation of the solvent, the remaining lipid film was dried in vacuum for 1 h and then dispersed by gentle handshaking in an ovalbumin solution in saline (0.0667 and 0.1 mg/mL for the first and second experiments, respectively). This was then left overnight at 4 °C to swell and stabilize. Liposome size was reduced by sonification. Nonentrapped material was not separated from liposomes, and the complete liposome suspension was used for immunizations.
For the first experiment (Figure 10), sex-matched NIH/OlaHsd mice (five per group) were immunized subcutaneously in the tail base and boosted one time after 21 days. The injection volume in all experimental groups was 0.15 mL per mouse, which corresponds to 10 μg of OVA, […], and 0.30 μmol of MDP and desmuramylpeptides. For the second experiment (Figure 11), sex-matched NIH/OlaHsd mice (five per group) were immunized and boosted two times subcutaneously into the tail base at 21-day intervals. The injection volume in all experimental groups was 0.1 mL per mouse, which corresponds to 10 μg of OVA, 400 μg of lipids, and 0.15 μmol of MDP and 75. The mice were anesthetized with ip application of ketamine/xylazine (25 mg/kg each) prior to blood collection from the axillary plexus on the seventh day after the last booster dose. Individual serum from each animal was decomplemented at 56 °C for 30 min and then stored at −20 °C until tested.
ELISA assays were performed as detailed previously.[46] Briefly, high-binding ELISA plates (Costar, U.S.A.) were coated with a 15 μg/mL solution of ovalbumin in carbonate buffer, pH 9.6, and incubated overnight at room temperature. Nonspecific antibody binding was blocked with 0.5% w/v bovine serum albumin in PBS-T (0.05% (v/v) Tween 20 in phosphate-buffered saline) for 2 h at 37 °C. After washing, five serial dilutions of mice sera and standard preparations were added in duplicate. Plates were incubated overnight at room temperature, washed, and analyzed for ovalbumin-specific IgG levels by incubation with HRP-conjugated goat anti-mouse IgG (2 h at 37 °C) and then, after washing, with 0.6 mg/mL o-phenylenediaminedihydrochloride solution in citrate-phosphate buffer, pH 5.0, with 0.5 μL of 30% H2O2 per milliliter for 30 min at room temperature in the dark. The enzymatic reaction was stopped with 12.5% H2SO4, and absorbance at 492 nm was measured using a microplate reader (Thermo Fisher Scientific, Waltham, MA, U.S.A.). […]

[5] = tested on: human PBMCs; assay: Cytokine release from peripheral blood mononuclear cells (cytometric bead array); type: cell-based; settings: 2 μM, 18 h, without LPS
Experimental: The immunostimulatory effects of the selected desmuramylpeptides were evaluated using human primary peripheral blood mononuclear cells (PBMCs). This heterogeneous mixture of immune cells allowed the study of the effects of these NOD2 agonists in a physiologically relevant system, where other NOD2-interacting and downstream signaling proteins were present. The effects of desmuramylpeptides were first determined for the secreted cytokine profile using a cytometric bead array cytokine kit. Moreover, considering that activation of NOD2 is also an important amplification signal for Toll-like receptor (TLR)-induced inflammatory responses,[79]−[81] we also examined the effects on cytokine secretion of the combination of desmuramylpeptides with LPS, a well-known TLR4 agonist.
In line with previous studies, the effects of MDP and the desmuramylpeptides were most pronounced for the induction of the chemokine IL-8.[82]
Peripheral blood mononuclear cells were seeded (1 × 10^6 cells/mL) in 48-well plates in 500 μL of growth medium and treated with the compounds (2 μM) or with the corresponding vehicle (0.1% DMSO) in the absence and presence of LPS (10 ng/mL). Cell-free supernatants were collected after 18 h of incubation (37 °C, 5% CO2) and stored at −80 °C until tested. Cytokine production was determined with the BD Cytometric Bead Array Human Inflammatory Cytokines Kit (contents: IL-8, IL-1β, IL-6, IL-10, TNF, IL-12p70; BD Bioscience) on an Attune NxT flow cytometer (Thermo Fisher Scientific, Waltham, MA, U.S.A.). Standard curves were generated using recombinant cytokines contained in the kit. The data were analyzed using the FlowJo (Tree Star, Inc., Ashland, OR, U.S.A.) and Prism (GraphPad, San Diego, CA, U.S.A.) software. The experiments were repeated as four independent biological replicates. Statistical significance was determined by repeated measures one-way ANOVA followed with Dunnett’s multiple comparisons test.

[6] = design: method as in PMID 29543461; settings: earlier work of the group; cited from earlier work
[7] = neutral liposomes, 0.30 μmol adjuvant per dose, 1 week after booster

T1 sequence (Q9HC29 whole entry): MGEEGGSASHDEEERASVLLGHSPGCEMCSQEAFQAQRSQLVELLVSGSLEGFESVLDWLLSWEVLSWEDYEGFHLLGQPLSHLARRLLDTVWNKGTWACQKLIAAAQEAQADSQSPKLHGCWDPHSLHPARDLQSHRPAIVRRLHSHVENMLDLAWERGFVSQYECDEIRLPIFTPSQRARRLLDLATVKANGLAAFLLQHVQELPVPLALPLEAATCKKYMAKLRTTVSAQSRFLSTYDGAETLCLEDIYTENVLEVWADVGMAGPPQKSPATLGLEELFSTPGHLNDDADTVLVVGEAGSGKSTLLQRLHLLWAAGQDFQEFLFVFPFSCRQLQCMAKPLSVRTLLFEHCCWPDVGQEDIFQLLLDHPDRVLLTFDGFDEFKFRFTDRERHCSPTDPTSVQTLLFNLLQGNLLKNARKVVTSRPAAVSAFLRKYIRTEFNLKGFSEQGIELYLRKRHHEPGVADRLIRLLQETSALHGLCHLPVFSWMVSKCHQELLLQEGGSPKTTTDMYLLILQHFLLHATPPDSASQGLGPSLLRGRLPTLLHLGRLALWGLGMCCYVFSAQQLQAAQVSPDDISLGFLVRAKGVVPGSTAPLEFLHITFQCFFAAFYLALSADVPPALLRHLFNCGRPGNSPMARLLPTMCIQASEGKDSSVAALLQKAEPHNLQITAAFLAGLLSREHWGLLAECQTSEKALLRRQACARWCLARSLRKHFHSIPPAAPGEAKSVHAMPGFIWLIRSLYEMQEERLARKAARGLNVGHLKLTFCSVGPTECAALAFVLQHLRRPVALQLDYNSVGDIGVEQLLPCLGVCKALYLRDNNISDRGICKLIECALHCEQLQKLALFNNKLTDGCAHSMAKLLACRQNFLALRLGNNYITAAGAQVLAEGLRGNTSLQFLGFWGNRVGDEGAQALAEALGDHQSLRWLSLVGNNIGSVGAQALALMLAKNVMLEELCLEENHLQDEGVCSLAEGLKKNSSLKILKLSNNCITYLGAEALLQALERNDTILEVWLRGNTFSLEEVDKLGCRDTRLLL

| NOD2 activity at 2 μM (fold increase) [1] | EC50 [1] | NOD1 agonistic activity [2] | NF-κB transcriptional activity after NOD2 antagonist pretreatment [3] | Compound | Log10 (anti-OVA IgG1/anti-OVA IgG2a) [4] | Ovalbumin-specific IgG2a response (in words) [4, 7] | Induction of cytokines IL-1β, IL-6, IL-8 and TNF-α, compound alone [5] | Ovalbumin-specific IgG1 response (in words) [4, 7] | Adjuvant activity: ovalbumin-specific IgG (in words) ([4]; neutral liposomes, 0.30 μmol adjuvant per dose, s.c., 1 week after booster) | Pyrogenicity [6] |
| --- | --- | --- | --- | --- | --- | --- | --- | --- | --- | --- |
| 2.28 ± 0.07 fold increase | 1730 ± 101 nM | showed no activity in the NOD1 assay | reduced NOD2 activation | CCOC(=O)CC[C@@H](NC(=O)[C@@H](NC(=O)CNC(=O)/C=C/c1ccc(O)c(O)c1)C(C)C)C(=O)OCC [Compound 21, Diethyl ((E)-3-(3,4-Dihydroxyphenyl)acryloyl)glycyl-L-valyl-D-glutamate] |  |  |  |  |  |  |
| 3.17 ± 0.03 fold increase | 30 ± 5 nM |  |  | CCCCCCCCCCCC(=O)Oc1ccc(/C=C/C(=O)NCC(=O)N[C@H](C(=O)N[C@H](CCC(=O)OCC)C(=O)OCC)C(C)C)cc1OC [Compound 74, Diethyl ((E)-3-(4-(Dodecanoyloxy)-3-methoxyphenyl)acryloyl)glycyl-L-valyl-D-glutamate] | 2.90 ± 0.39 | slight suppression of the IgG2a response | induced small increases in the levels of all four of these cytokines |  |  |  |
|  |  |  |  | CCOC(=O)CC[C@@H](NC(=O)[C@@H](NC(=O)CNC(=O)/C=C/c1ccc(O)c(OC)c1)C(C)C)C(=O)OCC [Compound 1] | 1.68 ± 0.06 |  |  | largely IgG1-based response | only marginal adjuvant activity | devoid of pyrogenicity |

| Compound | NOD2 activity at 2 μM (fold increase) [1] | EC50 [1] | NOD1 agonistic activity [2] | NF-κB transcriptional activity after NOD2 antagonist pretreatment [3] | Log10 (anti-OVA IgG1/anti-OVA IgG2a) [4] | Ovalbumin-specific IgG2a response (in words) [4, 7] | Induction of cytokines IL-1β, IL-6, IL-8 and TNF-α, compound alone [5] | Ovalbumin-specific IgG1 response (in words) [4, 7] | Adjuvant activity: ovalbumin-specific IgG (in words) ([4]; neutral liposomes, 0.30 μmol adjuvant per dose, s.c., 1 week after booster) | Pyrogenicity [6] |
| --- | --- | --- | --- | --- | --- | --- | --- | --- | --- | --- |
| CCOC(=O)CC[C@@H](NC(=O)[C@@H](NC(=O)CNC(=O)/C=C/c1ccc(OC(C)=O)c(OC)c1)C(C)C)C(=O)OCC [Compound 73, Diethyl ((E)-3-(4-Acetoxy-3-methoxyphenyl)acryloyl)glycyl-L-valyl-D-glutamate] | 3.05 ± 0.03 fold increase | 62 ± 27 nM |  |  |  |  | induced small increases in the levels of all four of these cytokines |  |  |  |
